Measured values from US7419780B2, “Methods and assays for screening protein targets” (The Trustees of Columbia University in the City of New York, priority 2000, dated 2008).

Legend:
Type in all cases: cell-based, S. cerevisiae
Details in all cases: 1 uM small molecule, difference to activity without small molecule, average of two trials
[1] = molecular target: T1, LexA (GSG)2eDHFR / B42 gly6rGR2 (UniProt P06536+P0ABQ4, C656G/F620S); experiment: β-galactosidase activity assay, strain V499Y
T1 construct: rat Glucocorticoid Receptor (aa 524-795) with point mutations; expressed in transfected cells; host or cells: S. cerevisiae FY250
T1 sequence (P0ABQ4 1-159): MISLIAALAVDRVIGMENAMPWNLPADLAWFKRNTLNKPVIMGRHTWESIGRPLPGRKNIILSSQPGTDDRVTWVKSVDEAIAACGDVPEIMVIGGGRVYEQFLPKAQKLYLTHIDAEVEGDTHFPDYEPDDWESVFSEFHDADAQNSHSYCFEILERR
T1 sequence (P06536 524-795 F620S/C656G limits assumed): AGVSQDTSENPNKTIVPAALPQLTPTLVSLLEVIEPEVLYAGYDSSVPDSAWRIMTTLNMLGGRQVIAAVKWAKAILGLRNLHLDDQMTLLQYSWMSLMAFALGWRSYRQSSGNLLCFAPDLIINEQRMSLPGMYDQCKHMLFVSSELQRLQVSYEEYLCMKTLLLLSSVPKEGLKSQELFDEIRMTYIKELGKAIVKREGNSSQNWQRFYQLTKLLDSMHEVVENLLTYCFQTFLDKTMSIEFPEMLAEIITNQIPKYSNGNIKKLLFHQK
From the text: (§1) Table III explains the components of each strain. Each strain was constructed from the parent yeast strain FY250 and also contains the pMW106 plasmid, which has the LacZ reporter gene that is turned on only in when the LexA DNA binding domain and the B42 activation are brought in tot he vicinity of each other. We use several different strains because we use DHFR from two different species, mDHFR is from murine, while eDHFR is from E. coli. We are asl oable to switch the small moleculebinding domains. For example, the strain containing LexA-eDHFR with B42-rGH2 is a different strain and behaves differently from the strain containing LexA-rGR2 with B42-eDHFR. We also put in short 6 amino acid linkers between the two domains of our protein chimeras and thus these are different strain as well.
(§2) The results in Table IV are averages of two separate trials. Each strain was examined with small molecules and without small molecules. The absolute activity is given as the β-galactisidase activity […]. The average β-galactosidse activity for a strain without small molecule (i.e. the negative control) was about 100 β-galactosidase units.

[2] = molecular target: T2, LexA mDHFR / B42 (GSG)rGR2 (UniProt P00375+P06536, C656G/F620S); experiment: β-galactosidase activity assay, strain V497Y
T2 construct: rat Glucocorticoid Receptor (aa 524-795) with point mutations; expressed in transfected cells; host or cells: S. cerevisiae FY250
T2 sequence (P00375 1-187): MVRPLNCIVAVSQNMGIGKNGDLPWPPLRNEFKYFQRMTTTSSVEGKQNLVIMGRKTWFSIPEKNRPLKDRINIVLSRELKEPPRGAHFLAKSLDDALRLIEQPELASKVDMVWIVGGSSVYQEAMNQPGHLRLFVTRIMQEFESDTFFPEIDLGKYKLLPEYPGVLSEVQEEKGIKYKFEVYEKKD
T2 sequence (P06536 524-795 F620S/C656G limits assumed): T1 sequence (P06536 524-795 F620S/C656G limits assumed)
From the text: as §1, §2

[3] = molecular target: T3, LexA rGR2 / B42 eDHFR (UniProt P06536+P0ABQ4, C656G/F620S); experiment: β-galactosidase activity assay, strain V505Y
T3 construct: rat Glucocorticoid Receptor (aa 524-795) with point mutations; expressed in transfected cells; host or cells: S. cerevisiae FY250
T3 sequence (P06536 524-795 F620S/C656G limits assumed): T1 sequence (P06536 524-795 F620S/C656G limits assumed)
T3 sequence (P0ABQ4 1-159): T1 sequence (P0ABQ4 1-159)
From the text: as §1, §2

[4] = molecular target: T4, LexA mDHFR / B42 gly6rGR2 (UniProt P00375+P06536, C656G/F620S); experiment: β-galactosidase activity assay, strain V496Y
T4 construct: rat Glucocorticoid Receptor (aa 524-795) with point mutations; expressed in transfected cells; host or cells: S. cerevisiae FY250
T4 sequence (P00375 1-187): T2 sequence (P00375 1-187)
T4 sequence (P06536 524-795 F620S/C656G limits assumed): T1 sequence (P06536 524-795 F620S/C656G limits assumed)
From the text: as §1, §2

[5] = molecular target: T5, LexA eDHFR / B42 (GSG)rGR2 (UniProt P06536+P0ABQ4, C656G/F620S); experiment: β-galactosidase activity assay, strain V494Y
T5 construct: rat Glucocorticoid Receptor (aa 524-795) with point mutations; expressed in transfected cells; host or cells: S. cerevisiae FY250
T5 sequence (P0ABQ4 1-159): T1 sequence (P0ABQ4 1-159)
T5 sequence (P06536 524-795 F620S/C656G limits assumed): T1 sequence (P06536 524-795 F620S/C656G limits assumed)
From the text: as §1, §2

[6] = molecular target: T6, LexA rGR2 / B42 (GSG)2eDHFR (UniProt P06536+P0ABQ4, C656G/F620S); experiment: β-galactosidase activity assay, strain V509Y
T6 construct: expressed in transfected cells; host or cells: S. cerevisiae FY250 with pMW106 lacZ reporter
T6 sequence (P06536 524-795 F620S/C656G limits assumed): T1 sequence (P06536 524-795 F620S/C656G limits assumed)
T6 sequence (P0ABQ4 1-159): T1 sequence (P0ABQ4 1-159)
From the text: as §1, §2

[7] = molecular target: T7, LexA (GSG)2eDHFR / B42 (GSG)rGR2 (UniProt P06536+P0ABQ4, C656G/F620S); experiment: β-galactosidase activity assay, strain V501Y
T7 construct: rat Glucocorticoid Receptor (aa 524-795) with point mutations; expressed in transfected cells; host or cells: S. cerevisiae FY250
T7 sequence (P0ABQ4 1-159): T1 sequence (P0ABQ4 1-159)
T7 sequence (P06536 524-795 F620S/C656G limits assumed): T1 sequence (P06536 524-795 F620S/C656G limits assumed)
From the text: as §1, §2

[8] = molecular target: T8, LexA (GSG)2rGR2 / B42 mDHFR (UniProt P00375+P06536, C656G/F620S); experiment: β-galactosidase activity assay, strain V508Y
T8 construct: expressed in transfected cells; host or cells: S. cerevisiae FY250 with pMW106 lacZ reporter
T8 sequence (P06536 524-795 F620S/C656G limits assumed): T1 sequence (P06536 524-795 F620S/C656G limits assumed)
T8 sequence (P00375 1-187): T2 sequence (P00375 1-187)
From the text: as §1, §2

[9] = molecular target: T9, LexA rGR2 / B42 mDHFR (UniProt P00375+P06536, C656G/F620S); experiment: β-galactosidase activity assay, strain V507Y
T9 construct: rat Glucocorticoid Receptor (aa 524-795) with point mutations; expressed in transfected cells; host or cells: S. cerevisiae FY250
T9 sequence (P06536 524-795 F620S/C656G limits assumed): T1 sequence (P06536 524-795 F620S/C656G limits assumed)
T9 sequence (P00375 1-187): T2 sequence (P00375 1-187)
From the text: as §1, §2

[10] = molecular target: T10, LexA mDHFR / B42 rGR2 (UniProt P00375+P06536, C656G/F620S); experiment: β-galactosidase activity assay, strain V495Y
T10 construct: rat Glucocorticoid Receptor (aa 524-795) with point mutations; expressed in transfected cells; host or cells: S. cerevisiae FY250
T10 sequence (P00375 1-187): T2 sequence (P00375 1-187)
T10 sequence (P06536 524-795 F620S/C656G limits assumed): T1 sequence (P06536 524-795 F620S/C656G limits assumed)
From the text: as §1, §2

**Q.** What does the source list for `C[C@@H]1C[C@H]2C3CCC4=CC(=O)C=C[C@]4(C)[C@@]3(F)[C@@H](O)C[C@]2(C)[C@@]1(O)C(=O)NCCSCc1cccc(CSCC[C@H](NC(=O)c2ccc(N(C)Cc3cnc4nc(N)nc(N)c4n3)cc2)C(=O)O)c1` (stereo partly shown) [DM1]?
**A.** B-gal activity [1]: 4368 β-galactosidase units; B-gal activity [2]: −8 β-galactosidase units; B-gal activity [3]: 557 β-galactosidase units; B-gal activity [4]: −30 β-galactosidase units; B-gal activity [5]: 9976 β-galactosidase units; B-gal activity [6]: 307 β-galactosidase units; B-gal activity [7]: 4662 β-galactosidase units; B-gal activity [8]: 0 β-galactosidase units; B-gal activity [9]: −7 β-galactosidase units; B-gal activity [10]: 15 β-galactosidase units
